Measured values published in ChEMBL document CHEMBL5584221, “Anti-inflammatory and Neuroprotective α-Pyrones from a Marine-Derived Strain of the Fungus Arthrinium arundinis and Their Heterologous Expression” (2024).
Activity calls are given as the source filed them. The rule behind the calls is not given here.

Tests used:
BV-2 [1] = assay: Antiinflammatory activity against mouse BV-2 cells assessed as inhibition of LPS-induced nitric oxide release at 20 uM measured after 24 hrs by Griess reagent based ELISA relative to control; assay type: functional
Cortical neurone [2] = assay: Neuroprotective activity against amyloid beta (25 to 35 residues)-induced cell death in ICR mouse primary cortical neurons assessed as increase in cell viability at 20 uM measured after 2 days by CCK-8 assay; assay type: functional, cell-based; settings: time 2.0 day
BV-2 [3] = assay: Antiinflammatory activity against mouse BV-2 cells assessed as inhibition of LPS-induced decrease of IL-4 at 2 to 20 uM measured after 24 hrs by ELISA; assay type: functional, cell-based; settings: dose 2-20 µM
BV-2 [4] = assay: Antiinflammatory activity against mouse BV-2 cells assessed as effect on LPS-induced Arg1 mRNA expression at 20 uM measured after 24 hrs by SYBR green staining based RT-PCR analysis; assay type: functional, cell-based
BV-2 [5] = assay: Antiinflammatory activity against mouse BV-2 cells assessed as inhibition of LPS-induced decrease of IL-10 at 2 to 20 uM measured after 24 hrs by ELISA; assay type: functional, cell-based; settings: dose 2-20 µM
BV-2 [6] = assay: Antiinflammatory activity against mouse BV-2 cells assessed as inhibition of LPS-induced IFN-gamma production at 2 to 20 uM measured after 24 hrs by ELISA; assay type: functional, cell-based; settings: dose 2-20 µM
Cortical neurone [7] = assay: Neuroprotective activity against amyloid beta (25 to 35 residues)-induced neuritic atrophy in ICR mouse primary cortical neurons assessed as increase in length of MAP2-positive dendrite at 2 to 20 uM measured after 4 days by immunostaining based fluorescence microscopy; assay type: functional, cell-based; settings: dose 2-20 µM, time 4.0 day
BV-2 [8] = assay: Antiinflammatory activity against mouse BV-2 cells assessed as inhibition of LPS-induced TNF-alpha production at 2 to 20 uM measured after 24 hrs by ELISA; assay type: functional, cell-based; settings: dose 2-20 µM
BV-2 [9] = assay: Antiinflammatory activity against mouse BV-2 cells assessed as inhibition of LPS-induced iNOS mRNA expression at 20 uM measured after 24 hrs by SYBR green staining based RT-PCR analysis; assay type: functional, cell-based
BV-2 [10] = assay: Antiinflammatory activity against mouse BV-2 cells assessed as effect on LPS-induced TGFbeta mRNA expression at 20 uM measured after 24 hrs by SYBR green staining based RT-PCR analysis; assay type: functional, cell-based
BV-2 [11] = assay: Antiinflammatory activity against mouse BV-2 cells assessed as effect on LPS-induced CD206 mRNA expression at 20 uM measured after 24 hrs by SYBR green staining based RT-PCR analysis; assay type: functional, cell-based

CCC(C)/C=C(\CO)CCCC(/C=C(C)/C=C(\C)C[C@@H](C)c1oc(=O)c(C)c(O)c1C)C(=O)O (some centres undefined)
inhibition at 20 µM (BV-2 [1]): > 50%

CC(=C\C(CCCc1cc(C)c(C)o1)C(=O)O)/C=C(\C)C[C@@H](C)c1oc(=O)c(C)c(O)c1C (some centres undefined)
Activity (Cortical neurone [2]): Active | inhibition (BV-2 [3]): Active | Activity (BV-2 [4]): inactive | inhibition (BV-2 [5]): Active | inhibition (BV-2 [6]): Active | Activity (Cortical neurone [7]): Active | inhibition (BV-2 [8]): Active | inhibition (BV-2 [9]): Active | Activity (BV-2 [10]): inactive | Activity (BV-2 [11]): inactive | inhibition at 20 µM (BV-2 [1]): > 50%

CCC(C)(O)/C=C(\CO)CCCC(/C=C(C)/C=C(\C)C[C@@H](C)c1oc(=O)c(C)c(O)c1C)C(=O)O (some centres undefined)
inhibition at 20 µM (BV-2 [1]): > 50%

CC1=C[C@@](CO)(CCCC(/C=C(C)/C=C(\C)C[C@@H](C)c2oc(=O)c(C)c(O)c2C)C(=O)O)O[C@H]1C (some centres undefined)
inhibition at 20 µM (BV-2 [1]): > 50%
